Consider 33 molecules from patent US11319309B2, “Cyclohexyl acid isoxazole azines as LPA antagonists” (BRISTOL-MYERS SQUIBB COMPANY, priority 2017, dated 2022).

T1 sequence (Q92633 whole entry): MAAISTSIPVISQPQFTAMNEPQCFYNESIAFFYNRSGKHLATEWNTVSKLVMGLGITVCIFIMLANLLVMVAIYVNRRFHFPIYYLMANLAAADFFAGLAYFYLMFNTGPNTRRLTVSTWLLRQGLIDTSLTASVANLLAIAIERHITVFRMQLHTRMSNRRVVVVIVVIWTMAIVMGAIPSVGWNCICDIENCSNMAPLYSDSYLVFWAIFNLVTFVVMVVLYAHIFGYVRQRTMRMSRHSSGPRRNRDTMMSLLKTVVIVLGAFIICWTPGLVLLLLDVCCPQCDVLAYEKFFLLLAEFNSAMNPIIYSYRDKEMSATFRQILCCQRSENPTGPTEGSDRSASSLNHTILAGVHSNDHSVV

The test system of the first assay is human foetal lung fibroblasts.
Assay: not given
As to conditions: induced by BAL obtained from IPF patients (Tager et al. 2008); cited from earlier work.
In the case of `Cc1noc(-c2ccc(CSCCC(=O)O)cc2)c1NC(=O)OC(C)c1ccccc1Cl` (stereo not shown) [Ki16425], the “chemotaxis of human foetal lung fibroblasts” value is given as “blocked”.

A further assay deals with mouse epithelial renal cell line, MCT.
Assay: not given
As to conditions: MCT cells, co-treatment with LPA; cited from earlier work.
For the molecule `Cc1noc(-c2ccc(CSCCC(=O)O)cc2)c1NC(=O)OC(C)c1ccccc1Cl` (stereo not shown) [Ki16425], the “induction of CTGF expression by LPA” value is “almost completely suppressed”.

Another assay has as its system UUO mice.
Assay: not given
As to conditions: UUO mice treated with antagonist, compared with LPA1 (-/-) mice; cited from earlier work.
`Cc1noc(-c2ccc(CSCCC(=O)O)cc2)c1NC(=O)OC(C)c1ccccc1Cl` (stereo not shown) [Ki16425]: the “development of renal fibrosis” value is “closely resembled the profile of LPA1 (−/−) mice”.

For a further assay, the system named is pancreatic cancer cell lines.
Assay: not given
As to conditions: highly peritoneal metastatic pancreatic cancer cell line (Yamada et al. 2004); cited from earlier work.
`Cc1noc(-c2ccc(CSCCC(=O)O)cc2)c1NC(=O)OC(C)c1ccccc1Cl` (stereo not shown) [Ki16425]: the “LPA-induced and ascites-induced invasion activity” value is on record as “blocked”.

Still in this assay, the particulars now being: pancreatic cancer cell lines (Yamada et al. 2004); cited from earlier work.
On to `Cc1noc(-c2ccc(CSCCC(=O)O)cc2)c1NC(=O)OC(C)c1ccccc1Cl` (stereo not shown) [Ki16425], for which the “in vitro migration in response to LPA and peritoneal fluid (ascites)” value is “effectively blocked”.

A further assay relates to IPF patients.
Assay: not given
As to conditions: 26-week clinical trial, IPF patients (Palmer et al., Chest 2018); cited from earlier work.
As for `Cc1noc(-c2ccc(-c3ccc(C4(C(=O)O)CC4)cc3)cc2)c1NC(=O)O[C@H](C)c1ccccc1` [BMS-986020], the “rate of FVC (forced vital capacity) decline” value is on record as “significantly reduce”.

The next assay concerns the target T1, human LPA1 (Homo sapiens, UniProt Q92633).
T1 construct: expressed in transfected cells; host or cells: Chinese hamster ovary (CHO) cells
Put plainly: LPA1 functional antagonist assay (calcium flux). The assay is classed as cell-based. The following applies: CHO cells overexpressing human LPA1; inhibition of calcium flux induced by 10 nM LPA; read-out: hLPA1 IC50. Here is the method:
The effectiveness of compounds of the present invention as LPA1 inhibitors can be determined in an LPA1 functional antagonist assay as follows:
Chinese hamster ovary cells overexpressing human LPA1 were plated overnight (15,000 cells/well) in poly-D-lysine coated 384-well microplates (Greiner bio-one, Cat #781946) in DMEM/F12 medium (Gibco, Cat #11039). Following overnight culture, cells were loaded with calcium indicator dye (AAT Bioquest Inc, Cat #34601) for 30 minutes at 37° C. The cells were then equilibrated to room temperature for 30 minutes before the assay. Test compounds solubilized in DMSO were transferred to 384 well non-binding surface plates (Corning, Cat #3575) using the Labcyte Echo acoustic dispense and diluted with assay buffer [1X HBSS with calcium/magnesium (Gibco Cat #14025-092), 20 mM HEPES (Gibco Cat #15630-080) and 0.1% fatty acid free BSA (Sigma Cat # A9205)] to a final concentration of 0.5% DMSO. Diluted compounds were added to the cells by FDSS6000 (Hamamatsu) at final concentrations ranging from 0.08 nM to 5 μM. and were then incubated for 20 min at room temperature at which time LPA (Avanti Polar Lipids Cat #857130C) was added at final concentrations of 10 nM to stimulate the cells. The compound IC50 value was defined as the concentration of test compound which inhibited 50% of the calcium flux induced by LPA alone. IC50 values were determined by fitting data to a 4-parameter logistic equation (GraphPad Prism, San Diego Calif.).
(Calcium assays in cells follow changes in intracellular calcium, usually with a dye or a luminescent sensor.)
`Cc1nc(-c2onc(C)c2CNc2ncnc(C(C)C)n2)ccc1O[C@H]1CCC[C@H](C(=O)O)C1` [Example 2, (1 S,3 S)-3-((6-(4-(((4-isopropyl-1,3,5-triazin-2-yl)amino)methyl)-3-methylisoxazol-5-yl)-2-methylpyridin-3-yl)oxy)cyclohexane-1-carboxylic Acid]: the IC50 – broadly, the concentration that gives 50% inhibition – came out at 43 nM.

`Cc1noc(-c2ccc(O[C@H]3CCC[C@H](C(=O)O)C3)cn2)c1CNc1ncnc(C2CCCC2)n1` [Example 28]: the IC50 amounted to 24 nM.

As to `CCOc1ccnc(NCc2c(C)noc2-c2ccc(O[C@H]3CCC[C@H](C(=O)O)C3)c(C)n2)n1` [Example 17, (1S,3S)-3-((6-(4-(((4-Ethoxypyrimidin-2-yl)amino)methyl)-3-methylisoxazol-5-yl)-2-methylpyridin-3-yl)oxy)cyclohexane-1-carboxylic Acid], the IC50 came out at 26 nM.

Consider `Cc1noc(-c2ccc(O[C@@H]3CCC[C@H](C(=O)O)C3)cc2)c1COc1nccc(-c2ccccc2)n1` (racemic) [Example 29, (±)-Cis-3-(4-(3-Methyl-4-(((4-phenylpyrimidin-2-yl)oxy)methyl)isoxazol-5-yl)phenoxy)cyclo-hexanecarboxylic Acid], for which the IC50 turned out to be 209 nM.

For the molecule `Cc1cc(Oc2ccccc2)nc(NCc2c(C)noc2-c2ccc(O[C@H]3CCC[C@H](C(=O)O)C3)cn2)n1` [Example 9], the IC50 turned out to be 20 nM.

`Cc1noc(-c2ccc(O[C@H]3CCC[C@H](C(=O)O)C3)cn2)c1CNc1nccc(Oc2ccccc2)n1` [Example 7]: the IC50 is 6 nM.

With `Cc1nc(-c2onc(C)c2CNc2nccc(-c3ccccn3)n2)ccc1O[C@H]1CCC[C@H](C(=O)O)C1` [Example 14], the IC50 came out at 64 nM.

As for `Cc1cc(-c2ccccc2)nc(NCc2c(C)noc2-c2ccc(O[C@H]3CCC[C@H](C(=O)O)C3)cn2)n1` [Example 8], the IC50 amounted to 16 nM.

On to `Cc1nc(-c2onc(C)c2CNc2ncnc(C3CC3)n2)ccc1O[C@H]1CCC[C@H](C(=O)O)C1` [Example 19], for which the IC50 came to 76 nM.

`Cc1noc(-c2ccc(O[C@H]3CCC[C@H](C(=O)O)C3)cn2)c1CNc1nccc(-c2ccccc2)n1` [Example 3]: the IC50 was found to be 18 nM.

For `Cc1noc(-c2ccc(O[C@H]3CCC[C@@H](C(=O)O)C3)cn2)c1CNc1nccc(-c2ccccc2)n1` [Example 4], the IC50 worked out at 39 nM.

In the case of `Cc1noc(-c2ccc(O[C@H]3CCC[C@H](C(=O)O)C3)cn2)c1CNc1ncnc(C2CCC2)n1` [Example 27], the IC50 is 33 nM.

Take `Cc1noc(-c2ccc(O[C@H]3CCC[C@H](C(=O)O)C3)cn2)c1CNc1nccc(-c2ccccc2)n1` [Example 1, (1S,3S)-3-((6-(3-methyl-4-(((4-phenylpyrimidin-2-yl)amino)methyl)isoxazol-5-yl)pyridin-3-yl)oxy) cyclohexane-1-carboxylic Acid]: the IC50 worked out at 14 nM.

With `Cc1noc(-c2ccc(O[C@H]3CCC[C@H](C(=O)O)C3)cn2)c1CNc1ncnc(C(C)C)n1` [Example 26], the IC50 turned out to be 38 nM.

Turning to `Cc1noc(-c2ccc(O[C@H]3CCC[C@H](C(=O)O)C3)cn2)c1CNc1cc(-c2ccccc2)ccn1` [Example 5], the IC50 came out at 21 nM.

Take `Cc1noc(-c2ccc(O[C@H]3CCC[C@H](C(=O)O)C3)cn2)c1CNc1ncc(F)c(NC(C)C)n1` [Example 24]: the IC50 was found to be 32 nM.

As for `Cc1cnc(NCc2c(C)noc2-c2ccc(O[C@H]3CCC[C@H](C(=O)O)C3)cn2)nc1-c1ccccc1` [Example 15], the IC50 came out at 4.9 nM.

Take `CCOc1ccnc(NCc2c(C)noc2-c2ccc(O[C@H]3CCC[C@H](C(=O)O)C3)cn2)n1` [Example 23]: the IC50 stood at 14 nM.

As to `Cc1noc(-c2ccc(O[C@H]3CCC[C@H](C(=O)O)C3)cn2)c1CNc1nccc(C2CC2)n1` [Example 10], the IC50 came to 18 nM.

In the case of `Cc1nc(-c2onc(C)c2CNc2ncc(F)c(NC(C)C)n2)ccc1O[C@H]1CCC[C@H](C(=O)O)C1` [Example 18], the IC50 is 88 nM.

For `Cc1nc(-c2onc(C)c2CNc2ncnc(C3CCCC3)n2)ccc1O[C@H]1CCC[C@H](C(=O)O)C1` [Example 21], the IC50 came to 60 nM.

For the molecule `Cc1noc(-c2ccc(O[C@@H]3CCC[C@@H](C(=O)O)C3)cc2)c1CNc1nccc(-c2ccccc2)n1` [Example 22], the IC50 came to 47 nM.

Consider `Cc1noc(-c2ccc(O[C@@H]3CCC[C@@H](C(=O)O)C3)cc2)c1COc1nccc(-c2ccccc2)n1` (racemic) [Example 30, (±)-Trans-3-(4-(3-methyl-4-(((4-phenylpyrimidin-2-yl)oxy)methyl)isoxazol-5-yl)phenoxy)cyclohexanecarboxylic Acid], for which the IC50 was 47 nM.

Regarding `Cc1noc(-c2ccc(O[C@H]3CCC[C@H](C(=O)O)C3)cn2)c1CNc1ncnc(C2CC2)n1` [Example 25], the IC50 was 29 nM.

Turning to `Cc1nc(-c2onc(C)c2CNc2ncnc(C3CCC3)n2)ccc1O[C@H]1CCC[C@H](C(=O)O)C1` [Example 20], the IC50 amounted to 64 nM.

For `Cc1noc(-c2ccc(O[C@H]3CCC[C@](F)(C(=O)O)C3)cn2)c1CNc1nccc(-c2ccccc2)n1` [Example 6], the IC50 was determined as 7.8 nM.

Regarding `Cc1noc(-c2ccc(O[C@H]3CCC[C@@H](C(=O)O)C3)cn2)c1CNc1nccc(-c2ccccc2)n1` [Example 16], the IC50 amounted to 14 nM.

In the case of `Cc1cc(OC(C)C)nc(NCc2c(C)noc2-c2ccc(O[C@H]3CCC[C@H](C(=O)O)C3)cn2)n1` [Example 11], the IC50 came to 17 nM.

Turning to `Cc1noc(-c2ccc(O[C@H]3CCC[C@H](C(=O)O)C3)cn2)c1CNc1nccc(-c2ccccn2)n1` [Example 13], the IC50 stood at 32 nM.

`Cc1cc(N2CCCCC2)nc(NCc2c(C)noc2-c2ccc(O[C@H]3CCC[C@H](C(=O)O)C3)cn2)n1` [Example 12]: the IC50 was found to be 1100 nM.

A further assay has as its system nerve-injured mice.
Assay: not given
As to conditions: pretreatment, nerve-injured mice (Inoue et al. 2004); cited from earlier work.
`C[C@@H](N)[C@H]1CC[C@H](C(=O)Nc2ccncc2)CC1` [Example Y-27632]: the allodynia and hyperalgesia result is recorded as “completely abolished”.
